# Key:
# Assay in all cases: relative viability (nuclei count vs DMSO), 5 days (fraction); higher = more cells survive
# NCI-H2085 = tested on: NCI-H2085
# In short: (§1)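 Lung cancer cell lines, seeded in 1536-well plates, were treated the following day by pin tool with a single drug or with five library-drug doses (not always all listed) in √10 steps on top of a fixed anchor-drug dose. Cells were fixed and nuclei stained in one step after 5 days, and nuclei were counted. Relative viability is the nuclei count for treated wells divided by that for vehicle wells, reported as medians of duplicate plates.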
# ABC-1 = tested on: ABC-1
# In short: as §1
# LU99A = tested on: LU99A
# In short: as §1
# NCI-H838 = tested on: NCI-H838
# In short: as §1
# LC-2-ad = tested on: LC-2-ad
# In short: as §1
# EPLC-272H = tested on: EPLC-272H
# In short: as §1
# NCI-H2023 = tested on: NCI-H2023
# In short: as §1
# NCI-H1355 = tested on: NCI-H1355
# In short: as §1
# SW 1573 = tested on: SW 1573
# In short: as §1
# NCI-H2347 = tested on: NCI-H2347
# In short: as §1
# NCI-H2126 = tested on: NCI-H2126
# In short: as §1
# NCI-H650 = tested on: NCI-H650
# In short: as §1
# COR-L23 = tested on: COR-L23
# In short: as §1
# HARA = tested on: HARA
# In short: as §1
# HCC-78 = tested on: HCC-78
# In short: as §1
# NCI-H1993 = tested on: NCI-H1993
# In short: as §1
# HCC-15 = tested on: HCC-15
# In short: as §1
# PC-14 = tested on: PC-14
# In short: as §1
# UMC-11 = tested on: UMC-11
# In short: as §1
# NCI-H1651 = tested on: NCI-H1651
# In short: as §1
# NCI-H1915 = tested on: NCI-H1915
# In short: as §1
compound,measurement,setting,value
Oc1nc(-c2ccc(C(F)(F)F)cc2)nc2c1CSCC2 [XAV939] + CC(C)C[C@H](NC(=O)[C@H](Cc1ccccc1)NC(=O)c1cnccn1)B(O)O [Bortezomib] (partner 0.002 µM),relative viability,NCI-H2085; first compound 0.08 µM,1.02
same,relative viability,NCI-H2085; first compound 0.253 µM,1.03
same,relative viability,NCI-H2085; first compound 0.8 µM,0.975
same,relative viability,NCI-H2085; first compound 2.53 µM,0.992
same,relative viability,ABC-1; first compound 0.08 µM,0.315
same,relative viability,ABC-1; first compound 0.253 µM,0.307
same,relative viability,ABC-1; first compound 0.8 µM,0.254
same,relative viability,ABC-1; first compound 2.53 µM,0.252
same,relative viability,LU99A; first compound 0.08 µM,1.26
same,relative viability,LU99A; first compound 0.253 µM,0.714
same,relative viability,LU99A; first compound 0.8 µM,1.01
same,relative viability,LU99A; first compound 2.53 µM,1.19
same,relative viability,NCI-H838; first compound 0.08 µM,0.852
same,relative viability,NCI-H838; first compound 0.253 µM,0.683
same,relative viability,NCI-H838; first compound 0.8 µM,0.893
same,relative viability,NCI-H838; first compound 2.53 µM,0.527
same,relative viability,LC-2-ad; first compound 0.08 µM,1.01
same,relative viability,LC-2-ad; first compound 0.253 µM,0.919
same,relative viability,LC-2-ad; first compound 0.8 µM,0.984
same,relative viability,LC-2-ad; first compound 2.53 µM,0.887
same,relative viability,EPLC-272H; first compound 0.08 µM,1.05
same,relative viability,EPLC-272H; first compound 0.253 µM,0.816
same,relative viability,EPLC-272H; first compound 0.8 µM,1.02
same,relative viability,EPLC-272H; first compound 2.53 µM,0.91
same,relative viability,NCI-H2023; first compound 0.08 µM,1.11
same,relative viability,NCI-H2023; first compound 0.253 µM,0.785
same,relative viability,NCI-H2023; first compound 0.8 µM,0.833
same,relative viability,NCI-H2023; first compound 2.53 µM,0.792
same,relative viability,NCI-H1355; first compound 0.08 µM,1.17
same,relative viability,NCI-H1355; first compound 0.253 µM,1.06
same,relative viability,NCI-H1355; first compound 0.8 µM,1.21
same,relative viability,NCI-H1355; first compound 2.53 µM,0.81
same,relative viability,SW 1573; first compound 0.08 µM,0.994
same,relative viability,SW 1573; first compound 0.253 µM,1.01
same,relative viability,SW 1573; first compound 0.8 µM,1.1
same,relative viability,SW 1573; first compound 2.53 µM,0.676
same,relative viability,NCI-H2347; first compound 0.08 µM,1.27
same,relative viability,NCI-H2347; first compound 0.253 µM,0.75
same,relative viability,NCI-H2347; first compound 0.8 µM,1.02
same,relative viability,NCI-H2347; first compound 2.53 µM,0.837
same,relative viability,NCI-H2126; first compound 0.08 µM,1.18
same,relative viability,NCI-H2126; first compound 0.253 µM,0.984
same,relative viability,NCI-H2126; first compound 0.8 µM,1.08
same,relative viability,NCI-H2126; first compound 2.53 µM,1.02
same,relative viability,NCI-H650; first compound 0.08 µM,0.838
same,relative viability,NCI-H650; first compound 0.253 µM,0.882
same,relative viability,NCI-H650; first compound 0.8 µM,0.854
same,relative viability,NCI-H650; first compound 2.53 µM,0.703
same,relative viability,COR-L23; first compound 0.08 µM,1.03
same,relative viability,COR-L23; first compound 0.253 µM,0.994
same,relative viability,COR-L23; first compound 0.8 µM,1.05
same,relative viability,COR-L23; first compound 2.53 µM,0.855
same,relative viability,HARA; first compound 0.08 µM,1.35
same,relative viability,HARA; first compound 0.253 µM,1
same,relative viability,HARA; first compound 0.8 µM,1.12
same,relative viability,HARA; first compound 2.53 µM,1
same,relative viability,HCC-78; first compound 0.08 µM,0.517
same,relative viability,HCC-78; first compound 0.253 µM,0.363
same,relative viability,HCC-78; first compound 0.8 µM,0.526
same,relative viability,HCC-78; first compound 2.53 µM,0.405
same,relative viability,NCI-H1993; first compound 0.8 µM,0.972
same,relative viability,NCI-H1993; first compound 2.53 µM,0.891
same,relative viability,HCC-15; first compound 0.08 µM,1.2
same,relative viability,HCC-15; first compound 0.253 µM,0.938
same,relative viability,HCC-15; first compound 0.8 µM,1.05
same,relative viability,HCC-15; first compound 2.53 µM,1.06
same,relative viability,PC-14; first compound 0.08 µM,0.825
same,relative viability,PC-14; first compound 0.253 µM,0.808
same,relative viability,PC-14; first compound 0.8 µM,0.846
same,relative viability,PC-14; first compound 2.53 µM,0.794
same,relative viability,UMC-11; first compound 0.08 µM,0.789
same,relative viability,UMC-11; first compound 0.8 µM,0.754
same,relative viability,UMC-11; first compound 2.53 µM,0.708
same,relative viability,NCI-H1651; first compound 0.08 µM,0.906
same,relative viability,NCI-H1651; first compound 0.253 µM,0.905
same,relative viability,NCI-H1651; first compound 0.8 µM,0.942
same,relative viability,NCI-H1651; first compound 2.53 µM,0.925
same,relative viability,NCI-H1915; first compound 0.08 µM,1.06
same,relative viability,NCI-H1915; first compound 0.253 µM,0.974
same,relative viability,NCI-H1915; first compound 0.8 µM,0.983
same,relative viability,NCI-H1915; first compound 2.53 µM,1.14
